Measurements: patent US20190374533A1, “COMPOUNDS AND METHODS FOR INHIBITING NHE-MEDIATED ANTIPORT IN THE TREATMENT OF DISORDERS ASSOCIATED WITH FLUID RETENTION OR SALT OVERLOAD AND GASTROINTESTINAL TRACT DISORDERS” (Ardelyx, Inc., priority 2008, published 2019)

Assay: Parallel artificial membrane permeability assay (PAMPA)
Settings: pH 7.4

CN1Cc2c(Cl)cc(Cl)cc2C(c2cccc(S(=O)(=O)Nc3ccc(CP(=O)(O)O)cc3)c2)C1 (stereo not drawn) [Example 3, 4-(3-(6,8-dichloro-2-methyl-1,2,3,4-tetrahydroisoquinolin-4-yl)phenylsulfonamido)benzylphosphonic acid]
Papp A→B at 3 h, 20 uM: 0.8 ×10⁻⁶ cm/s

CN1Cc2c(Cl)cc(Cl)cc2C(c2cccc(S(=O)(=O)NCCCS(=O)(=O)O)c2)C1 (stereo not drawn) [Example 7, 3-(3-(6,8-dichloro-2-methyl-1,2,3,4-tetrahydroisoquinolin-4-yl)phenylsulfonamido)propane-1-sulfonic acid]
Papp A→B at 3 h, 20 uM: 0.5 ×10⁻⁶ cm/s

CN1Cc2c(Cl)cc(Cl)cc2C(c2cccc(S(=O)(=O)N(CC(=O)O)CP(=O)(O)O)c2)C1 (stereo not drawn) [Example 8, 2-(3-(6,8-dichloro-2-methyl-1,2,3,4-tetrahydroisoquinolin-4-yl)-N-(phosphonomethyl)phenylsulfonamido)acetic acid]
Papp A→B at 3 h, 20 uM: 0.2 ×10⁻⁶ cm/s

CN1Cc2c(Cl)cc(Cl)cc2C(c2ccc(S(=O)(=O)Nc3ccc(CP(=O)(O)O)cc3)cc2)C1 (stereo not drawn) [Example 13, (4-(4-(6,8-dichloro-2-methyl-1,2,3,4-tetrahydroisoquinolin-4-yl)phenylsulfonamido)phenyl)methylphosphonic acid]
Papp A→B at 3 h, 20 uM: 0.3 ×10⁻⁶ cm/s

CN1Cc2c(Cl)cc(Cl)cc2C(c2ccc(S(=O)(=O)NCc3ccc(CP(=O)(O)O)cc3)cc2)C1 (stereo not drawn) [Example 14, (4-((4-(6,8-dichloro-2-methyl-1,2,3,4-tetrahydroisoquinolin-4-yl)phenylsulfonamido)methyl)phenyl) methylphosphonic acid]
Papp A→B at 3 h, 20 uM: 0.4 ×10⁻⁶ cm/s

CN1Cc2c(Cl)cc(Cl)cc2C(c2ccc(S(=O)(=O)N(CCC(=O)O)CCC(=O)O)cc2)C1 (stereo not drawn) [Example 15, 3,3′-(4-(6,8-dichloro-2-methyl-1,2,3,4-tetrahydroisoquinolin-4-yl)phenylsulfonylazanediyl)dipropanoic acid]
Papp A→B at 3 h, 20 uM: 0.05 ×10⁻⁶ cm/s

CN1Cc2c(Cl)cc(Cl)cc2C(c2cccc(S(=O)(=O)NCCN(CCNS(=O)(=O)c3cccc(C4CN(C)Cc5c(Cl)cc(Cl)cc54)c3)CCNS(=O)(=O)c3cccc(C4CN(C)Cc5c(Cl)cc(Cl)cc54)c3)c2)C1 (stereo not drawn) [Example 16, N,N′,N″-(2,2′,2″-nitrilotris(ethane-2,1-diyl))tris(3-(6,8-dichloro-2-methyl-1,2,3,4-tetrahydroisoquinolin-4-yl)benzenesulfonamide)]
Papp A→B at 3 h, 20 uM: < 0.02 ×10⁻⁶ cm/s

CN1Cc2c(Cl)cc(Cl)cc2C(c2ccc(S(=O)(=O)NCCCCCCCCCCCCNS(=O)(=O)c3ccc(C4CN(C)Cc5c(Cl)cc(Cl)cc54)cc3)cc2)C1 (stereo not drawn) [Example 23, N,N′-(dodecane-1,12-diyl)bis(4-(6,8-dichloro-2-methyl-1,2,3,4-tetrahydroisoquinolin-4-yl)benzenesulfonamide)]
Papp A→B at 3 h, 20 uM: < 0.04 ×10⁻⁶ cm/s

CN1Cc2c(Cl)cc(Cl)cc2C(c2ccc(S(=O)(=O)NCCN(CCNS(=O)(=O)c3ccc(C4CN(C)Cc5c(Cl)cc(Cl)cc54)cc3)CCNS(=O)(=O)c3ccc(C4CN(C)Cc5c(Cl)cc(Cl)cc54)cc3)cc2)C1 (stereo not drawn) [Example 24, N,N′,N″-(2,2′,2″-nitrilotris(ethane-2,1-diyl))tris(4-(6,8-dichloro-2-methyl-1,2,3,4-tetrahydroisoquinolin-4-yl)benzenesulfonamide)]
Papp A→B at 3 h, 20 uM: 0.03 ×10⁻⁶ cm/s

CN1Cc2c(Cl)cc(Cl)cc2C(c2ccc(S(=O)(=O)NCc3ccc(CNS(=O)(=O)c4ccc(C5CN(C)Cc6c(Cl)cc(Cl)cc65)cc4)cc3)cc2)C1 (stereo not drawn) [Example 26, N,N′-(1,4-phenylenebis(methylene))bis(4-(6,8-dichloro-2-methyl-1,2,3,4-tetrahydroisoquinolin-4-yl)benzenesulfonamide)]
Papp A→B at 3 h, 20 uM: < 0.02 ×10⁻⁶ cm/s

CN1Cc2c(Cl)cc(Cl)cc2C(c2ccc(S(=O)(=O)NCCOCCOCCNS(=O)(=O)c3ccc(C4CN(C)Cc5c(Cl)cc(Cl)cc54)cc3)cc2)C1 (stereo not drawn) [Example 27, N,N′-(2,2′-(ethane-1,2-diylbis(oxy))bis(ethane-2,1-diyl))bis(4-(6,8-dichloro-2-methyl-1,2,3,4-tetrahydroisoquinolin-4-yl)benzenesulfonamide)]
Papp A→B at 3 h, 20 uM: < 0.02 ×10⁻⁶ cm/s

CN1Cc2c(Cl)cc(Cl)cc2C(c2ccc(NC(=O)N[C@@H](CC(=O)O)C(=O)O)cc2)C1 (stereo partly drawn) [Example 34, (2S)-2-(3-(4-(6,8-dichloro-2-methyl-1,2,3,4-tetrahydroisoquinolin-4-yl)phenyl)ureido)succinic acid]
Papp A→B at 3 h, 20 uM: 0.2 ×10⁻⁶ cm/s

CN1Cc2c(Cl)cc(Cl)cc2C(c2cccc(NC(=O)N[C@@H](CC(=O)O)C(=O)O)c2)C1 (stereo partly drawn) [Example 35, (2S)-2-(3-(3-(6,8-dichloro-2-methyl-1,2,3,4-tetrahydroisoquinolin-4-yl)phenyl)ureido)succinic acid]
Papp A→B at 3 h, 20 uM: 0.17 ×10⁻⁶ cm/s

CN1Cc2c(Cl)cc(Cl)cc2C(c2ccc(NC(=O)N[C@@H](CCC(=O)O)C(=O)O)cc2)C1 (stereo partly drawn) [Example 36]
Papp A→B at 3 h, 20 uM: 0.2 ×10⁻⁶ cm/s

CN1Cc2c(Cl)cc(Cl)cc2C(c2cccc(NC(=O)N[C@@H](CCC(=O)O)C(=O)O)c2)C1 (stereo partly drawn) [Example 37, (2S)-2-(3-(3-(6,8-dichloro-2-methyl-1,2,3,4-tetrahydroisoquinolin-4-yl)phenyl)ureido)pentanedioic acid]
Papp A→B at 3 h, 20 uM: 0.1 ×10⁻⁶ cm/s

CN1Cc2c(Cl)cc(Cl)cc2C(c2ccc(NC(=O)NCP(=O)(O)O)cc2)C1 (stereo not drawn) [Example 38, (3-(4-(6,8-dichloro-2-methyl-1,2,3,4-tetrahydroisoquinolin-4-yl)phenyl)ureido)methylphosphonic acid]
Papp A→B at 3 h, 20 uM: 0.1 ×10⁻⁶ cm/s

C/C(=C\c1cc(F)c(Oc2ccc(S(=O)(=O)NCCOCCOCCOCCNS(=O)(=O)c3ccc(Oc4c(F)cc(/C=C(\C)C(=O)N=C(N)N)cc4F)cc3)cc2)c(F)c1)C(=O)N=C(N)N [Example 44, N,N′-(2,2′-(2,2′-oxybis(ethane-2,1-diyl)bis(oxy))bis(ethane-2,1-diyl))bis[(E)-N-(diaminomethylene)-3-(3,5-difluoro-4-(4-sulfamoylphenoxy)phenyl)-2-methylacrylamide]]
Papp A→B at 3 h, 20 uM: 0.1 ×10⁻⁶ cm/s

C/C(=C\c1cc(F)c(Oc2ccc(S(=O)(=O)NCCOCCOCCOCCn3cc(CO)nn3)cc2)c(F)c1)C(=O)N=C(N)N [Example 48, (E)-N-(diaminomethylene)-3-(3,5-difluoro-4-(4-(N-(2-(2-(2-(2-(4-(hydroxymethyl)-1H-1,2,3-triazol-1-yl)ethoxy)ethoxy)ethoxy)ethyl)sulfamoyl)phenoxy)phenyl)-2-methylacrylamide]
Papp A→B at 3 h, 20 uM: 0.9 ×10⁻⁶ cm/s

C/C(=C\c1cc(F)c(Oc2ccc(S(=O)(=O)Nc3ccc(P(=O)(O)O)cc3)cc2)c(F)c1)C(=O)N=C(N)N [Example 51, (E)-4-(4-(4-(3-(diaminomethyleneamino)-2-methyl-3-oxoprop-1-enyl)-2,6-difluorophenoxy)phenylsulfonamido)phenylphosphonic acid]
Papp A→B at 3 h, 20 uM: 0.2 ×10⁻⁶ cm/s

C/C(=C\c1cc(F)c(Oc2ccc(S(=O)(=O)Nc3ccc(CP(=O)(O)O)cc3)cc2)c(F)c1)C(=O)N=C(N)N [Example 53, (E)-4-(4-(4-(3-(diaminomethyleneamino)-2-methyl-3-oxoprop-1-enyl)-2,6-difluorophenoxy)phenylsulfonamido)benzylphosphonic acid]
Papp A→B at 3 h, 20 uM: 1.6 ×10⁻⁶ cm/s

C/C(=C\c1cc(F)c(Oc2ccc(S(=O)(=O)NCP(=O)(O)O)cc2)c(F)c1)C(=O)N=C(N)N [Example 56, (E)-(4-(4-(3-(diaminomethyleneamino)-2-methyl-3-oxoprop-1-enyl)-2,6-difluorophenoxy)phenylsulfonamido)methylphosphonic acid]
Papp A→B at 3 h, 20 uM: 0.5 ×10⁻⁶ cm/s
